Source: ChEMBL document CHEMBL4038308, “Lipophosphonoxins II: Design, Synthesis, and Properties of Novel Broad Spectrum Antibacterial Agents” (J Med Chem, 2017)
The source made the active and inactive calls.

Key:
Type in all cases: functional
Bacillus subtilis [1] = assay: Antibacterial activity against Bacillus subtilis assessed as inhibition of DNA synthesis at 100 mg/L after 50 mins by [3H]thymidine incorporation assay
Bacillus subtilis [2] = assay: Antibacterial activity against Bacillus subtilis assessed as inhibition of RNA synthesis at 100 mg/L after 50 mins by [3H]-uridine incorporation assay
Bacillus subtilis [3] = assay: Antibacterial activity against Bacillus subtilis assessed as inhibition of peptidoglycan synthesis at 100 mg/L after 50 mins by [3H]-N-acetylglucosamine incorporation assay
Bacillus subtilis [4] = assay: Antibacterial activity against Bacillus subtilis assessed as inhibition of plasma membrane lipids synthesis at 100 mg/L after 50 mins by [3H]-sodium acetate incorporation assay
Bacillus subtilis [5] = assay: Antibacterial activity against Bacillus subtilis assessed as inhibition of protein synthesis at 100 mg/L after 50 mins by [35S]-methionine incorporation assay
Bacillus subtilis [6] = assay: Antibacterial activity against Bacillus subtilis assessed as inhibition of DNA synthesis at 10 mg/L after 50 mins by [3H]thymidine incorporation assay
Bacillus subtilis [7] = assay: Antibacterial activity against Bacillus subtilis assessed as inhibition of RNA synthesis at 10 mg/L after 50 mins by [3H]-uridine incorporation assay
Bacillus subtilis [8] = assay: Antibacterial activity against Bacillus subtilis assessed as inhibition of peptidoglycan synthesis at 10 mg/L after 50 mins by [3H]-N-acetylglucosamine incorporation assay
Bacillus subtilis [9] = assay: Antibacterial activity against Bacillus subtilis assessed as inhibition of plasma membrane lipids synthesis at 10 mg/L after 50 mins by [3H]-sodium acetate incorporation assay
Bacillus subtilis [10] = assay: Antibacterial activity against Bacillus subtilis assessed as inhibition of protein synthesis at 10 mg/L after 50 mins by [35S]-methionine incorporation assay

Measured: inhibition

CCn1cc(C(=O)O)c(=O)c2ccc(C)nc21
active: Bacillus subtilis [1] | Bacillus subtilis [2] | Bacillus subtilis [3] | Bacillus subtilis [4] | Bacillus subtilis [5]

O=C(N[C@H](CO)[C@H](O)c1ccc([N+](=O)[O-])cc1)C(Cl)Cl
active: Bacillus subtilis [6] | Bacillus subtilis [7] | Bacillus subtilis [8] | Bacillus subtilis [9] | Bacillus subtilis [10]
